From patent publication US11420963B2, “Rebamipide prodrugs, preparation method and use thereof” (SAMJIN PHARMACEUTICAL CO., LTD., priority 2012, dated 2022)
Entries after “also recorded” stand apart in the source; their conditions may differ. Read-outs that look alike come from different tables or passages of the source.

How the values were obtained:
[1] = Hydrolysis of prodrug into acting drug (rebamipide) in whole blood of rat, HPLC; type: in vitro ADME; conditions: for half-life at 0.196 mg/mL: half life of conversion from prodrug to rebamipide, read-out: Conversion Time in Whole Rat Blood (t1/2)
Method: Frozen rat blood was thawed for about 1 hr in a 37° C. water bath and homogenized.
A stock solution was prepared by dissolving 10 mg of the compound of each Example in 1 mL of CAN. Optionally, a buffer (prepared by mixing 750 mL of a solution of Na2HPO4 0.58 g and KH2PO4 2 g in 1 L of H2O with 250 mL of CAN) was added. In a 4 mL tube, 40 μL of the stock solution was uniformly mixed with 2 mL of blood by shaking, followed by storage at 30 rpm in a water bath.
At 0, 2, 4, 6, 8, 10, 15, 30, 45, 60, 90, and 120 min after storage, a sample was taken in a volume of 200 μL, diluted in 400 μL of CAN, vortexed for 1 min, and centrifuged for 1 min. The supernatant was analyzed by HPLC (but, for the compound of Example 47, sampling was performed at 0, 1, 3, 5, 7, and 10 min after storage). In addition, measurement was made of the time that it took for the prodrugs to be converted into the acting drug (rebamipide).

[2] = cited from earlier work
[3] = due to low solubility and low intestinal permeability; cited from earlier work
[4] = tested on: acetic acid-induced gastric ulcers; conditions: rats; cited from earlier work
[5] = in vivo; cited from earlier work

Compound | half-life at 0.196 mg/mL [1] [min] | other results
CCN(CC)CCSC(=O)C(Cc1cc(=O)[nH]c2ccccc12)NC(=O)c1ccc(Cl)cc1 (stereo not drawn) [Example 121, S-(2-Diethylamino)ethyl 2-(4-chlorobenzoylamino)-3-(2-oxo-1,2-dihydroquinolin-4-yl)thiopropionate] | < 2 | 
CN(C)CCOC(=O)C(Cc1cc(=O)[nH]c2ccccc12)NC(=O)c1ccc(Cl)cc1 (stereo not drawn) [Example 14, 2-Dimethylaminoethyl 2-(4-chlorobenzoylamino)-3-(2-oxo-1,2-dihydroquinolin-4-yl)propionate] | < 2 | 
CCC(OC(=O)C(Cc1cc(=O)[nH]c2ccccc12)NC(=O)c1ccc(Cl)cc1)C(=O)N1CCN(C)CC1 (stereo not drawn) [Example 100, 1-(4-Methylpiperazine-1-carbonyl)propyl 2-(4-chlorobenzoylamino)-3-(2-oxo-1,2-dihydroquinolin-4-yl)propionate] | < 2 | 
O=C(NC(Cc1cc(=O)[nH]c2ccccc12)C(=O)SCCN1CCCC1)c1ccc(Cl)cc1 (stereo not drawn) [Example 144, S-(2-Pyrrolidin-1-yl)ethyl 2-(4-chlorobenzoylamino)-3-(2-oxo-1,2-dihydroquinolin-4-yl)thiopropionate] | < 2 | 
CCN(CC)CCOC(=O)C(Cc1cc(=O)[nH]c2ccccc12)NC(=O)c1ccc(Cl)cc1 (stereo not drawn) [Example 16, 2-Diethylaminoethyl 2-(4-chlorobenzoylamino)-3-(2-oxo-1,2-dihydroquinolin-4-yl)propionate] | < 2 | 
O=C(NC(Cc1cc(=O)[nH]c2ccccc12)C(=O)OCCN1CCCCC1)c1ccc(Cl)cc1 (stereo not drawn) [Example 44, 2-Piperidin-1-ylethyl 2-(4-chlorobenzoylamino)-3-(2-oxo-1,2-dihydroquinolin-4-yl)propionate] | < 2 | 
CON(C)C(=O)COC(=O)C(Cc1cc(=O)[nH]c2ccccc12)NC(=O)c1ccc(Cl)cc1 (stereo not drawn) [Example 102, (Methoxymethylcarbamoyl)methyl 2-(4-chlorobenzoylamino)-3-(2-oxo-1,2-dihydroquinolin-4-yl)propionate] | < 2 | 
O=C(NC(Cc1cc(=O)[nH]c2ccccc12)C(=O)O)c1ccc(Cl)cc1 (stereo not drawn) [Rebamipide] |  | aqueous solubility ([2]; pH 3): approximately 0.0001 % (w/v); aqueous solubility ([2]; pH 7): approximately 0.013 % (w/v); solubility in solvents (in words) ([2]; solvent named in the value): freely soluble in dimethylformamide; also recorded: slightly soluble in methanol and ethanol; also recorded: almost insoluble in ether and water; BCS class [3]: Class IV; effect on ulcer size, relapse rate and cure rate [4]: reduces sizes and relapse rates of the ulcer while improving the cure rate; bioavailability [5]: around 5%
O=C(COC(=O)C(Cc1cc(=O)[nH]c2ccccc12)NC(=O)c1ccc(Cl)cc1)OCCN1CCOCC1 (stereo not drawn) [Example 105, 2-Morpholin-4-yl-ethoxycarbonylmethyl 2-(4-chlorobenzoylamino)-3-(2-oxo-1,2-dihydroquinolin-4-yl)propionate] | < 2 | 

Now from value to molecule, other results behind:

half-life at 0.196 mg/mL [1] [min] | Compound | other results
< 2 | Cc1oc(=O)oc1CSC(=O)C(Cc1cc(=O)[nH]c2ccccc12)NC(=O)c1ccc(Cl)cc1 (stereo not drawn) [Example 155, S-(5-Methyl-2-oxo-[1,3]dioxol-4-yl)methyl 2-(4-chlorobenzoylamino)-3-(2-oxo-1,2-dihydroquinolin-4-yl)thiopropionate] | 
< 2 | O=C(OCCN1CCOCC1)OCOC(=O)C(Cc1cc(=O)[nH]c2ccccc12)NC(=O)c1ccc(Cl)cc1 (stereo not drawn) [Example 109, 2-Morpholin-4-yl-ethoxycarbonyloxymethyl 2-(4-chlorobenzoylamino)-3-(2-oxo-1,2-dihydroquinolin-4-yl)propionate] | 
< 2 | CN1CCN(C(=O)COC(=O)C(Cc2cc(=O)[nH]c3ccccc23)NC(=O)c2ccc(Cl)cc2)CC1 (stereo not drawn) [Example 99, 2-(4-Methylpiperazin-1-yl)-2-oxoethyl 2-(4-chlorobenzoylamino)-3-(2-oxo-1,2-dihydroquinolin-4-yl)propionate] | 
< 2 | O=C(NC(Cc1cc(=O)[nH]c2ccccc12)C(=O)SCCN1CCOCC1)c1ccc(Cl)cc1 (stereo not drawn) [Example 151, S-(2-Morpholin-4-yl)ethyl 2-(4-chlorobenzoylamino)-3-(2-oxo-1,2-dihydroquinolin-4-yl)propionate] | 
< 2 | CCC(OC(=O)C(Cc1cc(=O)[nH]c2ccccc12)NC(=O)c1ccc(Cl)cc1)C(=O)OCCN1CCOCC1 (stereo not drawn) [Example 106, 2-Morpholin-4-ylethyl 2-[2-(4-chlorobenzoylamino)-3-(2-oxo-1,2-dihydroquinolin-4-yl)propionyloxy]butyrate] | 
2.57 | O=C(NC(Cc1cc(=O)[nH]c2ccccc12)C(=O)OCCN1CCOCC1)c1ccc(Cl)cc1 (stereo not drawn) [Example 47, 2-Morpholin-4-ylethyl 2-(4-chlorobenzoylamino)-3-(2-oxo-1,2-dihydroquinolin-4-yl)propionate] | time to complete conversion into rebamipide ([1]; FIG. 1): about 10 min
